Three compounds from paper PMC7604503, “Cyclic peptides can engage a single binding pocket through highly divergent modes” (Proceedings of the National Academy of Sciences of the …, 2020) can be followed below.

For orientation: Kd means the equilibrium constant for the complex coming apart.

SMILES strings stand for the structures. Where a SMILES comes first, the peptide text is derived from it. Bridges are numbered along the chain shown (N, C = ends).

Assay [1] has as its target T1, GCN5L2 (Homo sapiens, UniProt Q92830).
T1 construct: purchased Eurofins DiscoverX (BROMOscan, BromoMAX)
Put plainly: BROMOscan competition binding assay (BromoMAX, Eurofins DiscoverX). The conditions noted are these: for Percent Control GCN5L2: compound concentration 1000 nM, lower percentage control = stronger affinity.

For assay [2], the system named is TRIM33(PHD,Bromo.). The assay is described as above. The settings on record: compound concentration 1000 nM; lower percentage control = stronger affinity. Set-up: species or system human.
The target in assay [3] is T2, BRD7 (Homo sapiens, UniProt Q9NPI1).
T2 construct: purchased Eurofins DiscoverX (BROMOscan, BromoMAX)
T2 sequence (Q9NPI1 1-651): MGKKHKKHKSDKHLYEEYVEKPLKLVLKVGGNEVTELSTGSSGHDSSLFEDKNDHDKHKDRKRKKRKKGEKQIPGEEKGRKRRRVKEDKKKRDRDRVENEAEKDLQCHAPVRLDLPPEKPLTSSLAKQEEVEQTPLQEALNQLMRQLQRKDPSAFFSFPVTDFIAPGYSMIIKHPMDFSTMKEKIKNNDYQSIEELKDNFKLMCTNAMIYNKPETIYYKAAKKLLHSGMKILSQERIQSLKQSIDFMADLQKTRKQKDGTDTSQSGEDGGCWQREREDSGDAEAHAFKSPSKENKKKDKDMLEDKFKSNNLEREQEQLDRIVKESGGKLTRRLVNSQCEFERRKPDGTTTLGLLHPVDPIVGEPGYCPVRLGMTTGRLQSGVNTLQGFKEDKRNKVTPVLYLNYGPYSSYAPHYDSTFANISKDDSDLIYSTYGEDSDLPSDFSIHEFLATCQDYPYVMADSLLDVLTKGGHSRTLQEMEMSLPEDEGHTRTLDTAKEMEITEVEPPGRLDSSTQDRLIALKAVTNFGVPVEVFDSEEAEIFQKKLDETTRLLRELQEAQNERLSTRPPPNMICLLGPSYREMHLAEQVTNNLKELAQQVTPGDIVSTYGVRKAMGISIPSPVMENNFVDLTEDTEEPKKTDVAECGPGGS
Described as above. The conditions noted are these: for Percent Control BRD7: compound concentration 1000 nM, lower percentage control = stronger affinity.

Assay [4] concerns the target T3, BRD2-BD1 (Homo sapiens, UniProt P25440).
T3 construct: human BRD2 (BD1: 65-194; BD2: 347-455); Avi tag (biotinylated); made in house; host or cells: E. coli BL21(DE3)
Description: SPR binding of peptides to immobilised biotinylated BET bromodomain. As for the experimental part: (§1) We next assessed the ability of each of the three lead peptides to bind BRD3-BD1. […] To assess selectivity for other BET BDs, we used SPR to determine the binding affinity of each peptide toward the remaining BDs from BRD2, BRD3, and BRD4 (Fig. 1B). […]
(§2) Peptides were synthesised as C-terminal amides using standard fluorenylmethyloxycarbonyl (Fmoc)-strategy solid-phase chemistry using a Syro I automated synthesiser (Biotage) and NovaPEG Rink Amide resin (Novabiochem). Couplings were performed with HBTU/HOBt (1:1) and 6 equivalents of each amino acid. Double couplings were performed for arginine residues.
(§3) Following the final amino acid coupling reaction, the Fmoc group was removed and resin incubated with N-(chloroacetoxy)succinimide (0.2 M in DMF, 1 h, RT). Resin was washed with DMF (5 times) and DCM (5 times) and dried in vacuo.
(§4) Linear peptides were cleaved from the resin by incubation (3 h, RT) with a trifluoroacetic acid (TFA) cleavage cocktail (TFA/2,2’-(ethylenedioxy)diethanethiol/triisopropyl silane/H2O (92.5:2.5:2.5:2.5)) before filtration, concentration in vacuo and precipitation with ice-cold diethyl ether. Crude peptides were washed with diethyl ether (5 times), dried and resuspended in DMSO. The pH was raised to >8 using triethylamine to allow cyclisation. Following incubation (1 h, RT), peptides were re-acidified with TFA for purification.
(§5) Crude peptides were purified by reverse-phase high-performance liquid chromatography using a Chromolith Prep column (Merck) on a Prominence LC-20AP system (Shimadzu) (Solvent A: 0.1% TFA in H2O, Solvent B: 0.1% TFA in acetonitrile) to >95% purity as determined by mass spectrometry (Fig. S17). Purified peptides were reconstituted in DMSO and concentrations determined from their absorbance at 280 nm in 5% DMSO using predicted extinction coefficients.
(§6) Surface plasmon resonance (SPR)
(§7) Measurements were conducted on a T200 or S200 (GE Healthcare) and data analysed using the Biacore Insight Evaluation Software. Experiments were performed at 4 °C in single cycle kinetics mode. Biotinylated BET bromodomains were immobilised on a CAP chip (GE Healthcare) with a […]
(§8) pH 7.5 was used as the running buffer. […]
In general terms: Surface plasmon resonance follows binding to a sensor surface in real time, without labels.

Assay [5] has as its target T4, BRD4-BD1 (Homo sapiens, UniProt O60885).
T4 construct: BRD4 (BD1: 42-168; BD2: 348-464); Avi tag (biotinylated); made in house; host or cells: E. coli Rosetta2(DE3)
The description is as above. As for the experimental part:
as §1, §2, §3, §4, §5, §6, §7, §8

The target in assay [6] is T5, BRD3-BD2 (Homo sapiens, UniProt Q15059).
T5 construct: Avi tag (biotinylated); made in house; host or cells: E. coli BL21(DE3)
Described as above. As for the experimental part:
as §1, §2, §3, §4, §5, §6, §7, §8

Assay [7] deals with T6, BRD4-BD2 (Homo sapiens, UniProt O60885).
T6 construct: BRD4 (BD1: 42-168; BD2: 348-464); Avi tag (biotinylated); made in house; host or cells: E. coli BL21(DE3)
The assay is described as above. As for the experimental part: as §1, §2, §3, §4, §5, §6, §7, §8

Assay [8] has as its target T7, PBRM1(5) (Homo sapiens, UniProt Q86U86).
T7 construct: PBRM1(5); purchased Eurofins DiscoverX (BROMOscan, BromoMAX)
Description: BROMOscan competition binding assay (BromoMAX, Eurofins DiscoverX). The settings on record: for Percent Control PBRM1(5): compound concentration 1000 nM, lower percentage control = stronger affinity.

Assay [9] concerns the target T8, WDR9(2) (Homo sapiens, UniProt Q9NSI6).
T8 construct: WDR9(2); purchased Eurofins DiscoverX (BROMOscan, BromoMAX)
The assay is described as above. The settings on record: for Percent Control WDR9(2): compound concentration 1000 nM, lower percentage control = stronger affinity.

Assay [10] addresses T9, BRD3(1) (Homo sapiens, UniProt Q15059).
T9 construct: BRD3(1); purchased Eurofins DiscoverX (BROMOscan, BromoMAX)
The assay is described as above. The settings on record: for Percent Control BRD3(1): compound concentration 1000 nM, lower percentage control = stronger affinity.

Setting [11] is: gray boxed value: no reproducible signals observed at the concentrations used.
[12] abbreviates: 4 C, geometric mean and SD of two to five measurements.

T3 sequence (P25440 65-194): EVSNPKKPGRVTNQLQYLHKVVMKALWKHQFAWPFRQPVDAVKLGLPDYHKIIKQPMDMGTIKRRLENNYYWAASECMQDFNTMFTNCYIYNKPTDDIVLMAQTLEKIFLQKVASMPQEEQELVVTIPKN
T7 sequence (Q86U86 645-766 limits assumed): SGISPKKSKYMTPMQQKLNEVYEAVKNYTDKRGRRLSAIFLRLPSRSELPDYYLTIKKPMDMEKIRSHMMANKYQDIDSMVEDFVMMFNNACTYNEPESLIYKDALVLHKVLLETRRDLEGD
T1 sequence (Q92830 whole entry): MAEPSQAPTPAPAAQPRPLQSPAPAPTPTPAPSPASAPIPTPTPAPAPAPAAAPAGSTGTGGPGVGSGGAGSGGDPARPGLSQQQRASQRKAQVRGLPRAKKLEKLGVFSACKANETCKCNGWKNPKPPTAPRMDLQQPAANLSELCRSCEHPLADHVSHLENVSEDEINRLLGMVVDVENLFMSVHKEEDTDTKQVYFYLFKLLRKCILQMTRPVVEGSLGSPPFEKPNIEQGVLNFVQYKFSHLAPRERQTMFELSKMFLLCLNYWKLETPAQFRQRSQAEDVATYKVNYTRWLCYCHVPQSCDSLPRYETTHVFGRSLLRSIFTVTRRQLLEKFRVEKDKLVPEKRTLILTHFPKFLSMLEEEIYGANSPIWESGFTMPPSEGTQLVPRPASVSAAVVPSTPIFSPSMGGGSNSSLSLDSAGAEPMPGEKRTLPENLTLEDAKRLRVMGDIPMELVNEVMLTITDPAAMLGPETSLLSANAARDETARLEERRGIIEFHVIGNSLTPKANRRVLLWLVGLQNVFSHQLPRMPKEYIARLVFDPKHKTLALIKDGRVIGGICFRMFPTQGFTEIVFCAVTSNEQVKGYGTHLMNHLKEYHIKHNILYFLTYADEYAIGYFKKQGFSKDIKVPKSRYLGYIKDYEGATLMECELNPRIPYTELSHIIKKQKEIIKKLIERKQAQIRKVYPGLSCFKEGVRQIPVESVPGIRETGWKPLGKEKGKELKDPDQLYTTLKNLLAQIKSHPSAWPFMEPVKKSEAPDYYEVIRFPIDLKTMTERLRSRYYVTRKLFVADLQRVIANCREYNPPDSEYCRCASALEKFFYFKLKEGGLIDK
T9 sequence (Q15059 24-144 limits assumed): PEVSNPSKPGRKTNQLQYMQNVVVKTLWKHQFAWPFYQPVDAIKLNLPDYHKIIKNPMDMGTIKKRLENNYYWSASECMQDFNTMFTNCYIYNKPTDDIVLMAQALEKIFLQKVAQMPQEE
T5 sequence (Q15059 307-419): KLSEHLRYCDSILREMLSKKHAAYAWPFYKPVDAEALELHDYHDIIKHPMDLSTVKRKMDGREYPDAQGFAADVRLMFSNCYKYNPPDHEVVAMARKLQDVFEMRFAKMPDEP
T8 sequence (Q9NSI6 1307-1433 limits assumed): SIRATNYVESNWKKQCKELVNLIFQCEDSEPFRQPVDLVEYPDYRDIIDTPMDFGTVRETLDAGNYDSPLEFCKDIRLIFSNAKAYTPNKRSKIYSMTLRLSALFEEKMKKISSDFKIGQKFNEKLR

Take `CC[C@H](C)[C@H](NC(=O)[C@H](CCCNC(=N)N)NC(=O)[C@H](CCCCNC(C)=O)NC(=O)[C@H](CCCNC(=N)N)NC(=O)[C@H](CC(C)C)NC(=O)[C@@H]1CSCC(=O)N[C@@H](Cc2c[nH]c3ccccc23)C(=O)N[C@@H](CCCCNC(C)=O)C(=O)NCC(=O)N[C@@H](Cc2ccc(O)cc2)C(=O)N[C@@H](CC(C)C)C(=O)N1)C(=O)N[C@@H](CCC(N)=O)C(=O)N[C@@H](CCCNC(=N)N)C(=O)N[C@H](C(=O)N[C@@H](Cc1ccc(O)cc1)C(=O)N[C@@H](CC(N)=O)C(N)=O)[C@@H](C)O` [4.2C] ({CH2CO}-WK(Ac)GYLCLRK(Ac)RIQRTYN-NH2; thioether N-6): the values for the percent of control binding at 1 µM in [1] and in assay [9] were 96% and 85%, respectively. Moreover, the “Percent Control TRIM33(PHD,Bromo.)” value in assay [2] is on record as 100%. Besides, the remaining binding at 1 µM in [3] (read-out: Percent Control BRD7) amounted to 97%; in [8] (read-out: Percent Control PBRM1(5)), 90%; in assay [10] (read-out: Percent Control BRD3(1)), 100%. In addition, the Kd is over 10000 nM in assay [4] (setting [11]), over 10000 nM in assay [5] (setting [11]), 110 ± 116 nM in assay [6] (setting [12]) and 36 ± 35 nM in [7] (setting [12]).

On to `CC[C@H](C)[C@@H]1NC(=O)[C@H]([C@@H](C)O)NC(=O)[C@H](CCCCN)NC(=O)[C@H](Cc2c[nH]c3ccccc23)NC(=O)CSC[C@@H](C(N)=O)NC(=O)[C@H](CCC(N)=O)NC(=O)[C@H](CCCCNC(C)=O)NC(=O)[C@H]([C@@H](C)O)NC(=O)[C@H](CCCNC(=N)N)NC(=O)[C@H](Cc2c[nH]c3ccccc23)NC(=O)[C@H]([C@@H](C)O)NC(=O)[C@H](CCCCNC(C)=O)NC(=O)CNC(=O)[C@H](CCCCNC(C)=O)NC1=O` [3.1B] ({CH2CO}-WKTIK(Ac)GK(Ac)TWRTK(Ac)QC-NH2; thioether N-14), for which, in assay [1], the “Percent Control GCN5L2” value was determined as 100%. For the same compound, the “Percent Control TRIM33(PHD,Bromo.)” value in [2] worked out at 100%. Moreover, the “Percent Control BRD7” value in assay [3] turned out to be 99%. Besides, the Kd in assay [4] (setting [12]) is 0.27 ± 0.16 nM; in assay [5] (setting [12]) it was 0.55 ± 0.33 nM; in assay [6] (setting [11]), over 10000 nM; in [7] (setting [11]) it was over 10000 nM. For the same compound, the “Percent Control PBRM1(5)” value in [8] is on record as 100%. In addition, the “Percent Control WDR9(2)” value in assay [9] was determined as 96%. In addition, in [10], the “Percent Control BRD3(1)” value is 1.4%.

In the case of `CC[C@H](C)[C@@H]1NC(=O)[C@H](Cc2c[nH]c3ccccc23)NC(=O)[C@H](Cc2c[nH]c3ccccc23)NC(=O)CSC[C@@H](C(N)=O)NC(=O)CNC(=O)[C@H](CCCCNC(C)=O)NC(=O)[C@H](CCCCN)NC(=O)[C@H](C(C)C)NC(=O)[C@H](CCCCNC(C)=O)NC(=O)[C@@H]2CCCN2C(=O)[C@H]([C@@H](C)CC)NC1=O` [3.1C] ({CH2CO}-WWIIPK(Ac)VKK(Ac)GC-NH2; thioether N-11), the “Percent Control GCN5L2” value in assay [1] was 100%. Also, the “Percent Control TRIM33(PHD,Bromo.)” value in [2] came out at 100%. Also, the “Percent Control BRD7” value in assay [3] worked out at 96%. Besides, the Kd is 0.19 ± 0.04 nM in assay [4] (setting [12]), 0.35 ± 0.1 nM in [5] (setting [12]), 13 ± 12 nM in assay [6] (setting [12]) and 340 ± 350 nM in [7] (setting [12]). Moreover, in [8], the “Percent Control PBRM1(5)” value was found to be 89%. Further, the “Percent Control WDR9(2)” value in assay [9] stood at 87%. Further, in assay [10], the “Percent Control BRD3(1)” value turned out to be 0%.
